Assay results: US8778889B2, “Antimicrobial decapeptide oral hygiene treatment” (The United States of America as represented by the …, priority 2003, dated 2014)
Ends that are not written are not given here.

Experiments:
[1] = system: A. baumannii WRAMC #13; format: cell-based, Acinetobacter baumannii
Source text: (§1) As shown in the table below, many drug-resistant pathogens including multidrug-resistant Acinetobacter baumannii (clinical isolates) were susceptible to the bactericidal activity of the newly developed antimicrobial peptides. […] This is shown by their lower MIC and MBC against a number of antibiotic-resistant bacteria including methicillin-resistant Staphylococcus aureus, vancomycin-resistant Enterococci, and multidrug-resistant Acinetobacter baumannii. Many of these resistant strains are involved in nosocomial infections, which affect the immunocompromised and the elderly individuals with weakened defenses. The tests were done in a broth microdilution assay as described in our earlier publication (Concannon et al., 2003).

[2] = system: A. baumannii WRAMC #14; format: cell-based, Acinetobacter baumannii
Source text: as §1

[3] = system: A. baumannii WRAMC #5; format: cell-based, Acinetobacter baumannii
Source text: as §1

[4] = system: A. baumannii ATCC #19606; format: cell-based, Acinetobacter baumannii
Source text: as §1

[5] = system: A. baumannii WRAMC #2; format: cell-based, Acinetobacter baumannii
Source text: as §1

[6] = system: A. baumannii WRAMC #15; format: cell-based, Acinetobacter baumannii
Source text: as §1

[7] = system: A. baumannii WRAMC #19; format: cell-based, Acinetobacter baumannii
Source text: as §1

[8] = system: A. baumannii WRAMC #4; format: cell-based, Acinetobacter baumannii
Source text: as §1

[9] = system: A. baumannii WRAMC #8; format: cell-based, Acinetobacter baumannii
Source text: as §1

[10] = system: A. baumannii WRAMC #11; format: cell-based, Acinetobacter baumannii
Source text: as §1

[11] = system: A. baumannii WRAMC #16; format: cell-based, Acinetobacter baumannii
Source text: as §1

[12] = system: A. baumannii WRAMC #18; format: cell-based, Acinetobacter baumannii
Source text: as §1

[13] = system: A. baumannii WRAMC #17; format: cell-based, Acinetobacter baumannii
Source text: as §1

[14] = system: MRSA VVRAMC #10; format: cell-based, Staphylococcus aureus
Source text: as §1

[15] = system: MRSA WRAMC #9; format: cell-based, Staphylococcus aureus
Source text: as §1

[16] = system: MRSA ATCC #33591; format: cell-based, Staphylococcus aureus
Source text: as §1

[17] = system: MRSA VVRAMC #1; format: cell-based, Staphylococcus aureus
Source text: as §1

[18] = system: MRSA ATCC #43300; format: cell-based, Staphylococcus aureus
Source text: as §1

[19] = system: MRSA WRAMC #12; format: cell-based, Staphylococcus aureus
Source text: as §1

[20] = system: oral biofilms formed by salivary bacteria on saliva-conditioned Ge surfaces; experiment: Dual flow cell oral biofilm development (DIC microscopy); format: cell-based, human salivary bacteria
Source text: The dual flow cell system used in this study was modified from the chemostat flow cells of Herles et al. (Herles et al., 1994) and constructed according to our design and specifications by BioSurface Technologies (Bozeman, Mont.) (FIG. 1). The flow cell consisted of two compartments, each containing a polycarbonate flow chamber with three recesses to hold the Ge disks (10 mm in diameter and 1.8 mm in thickness) upon which biofilms were formed. Ge disks provided reflective surfaces that allowed the visualization of unstained biofilms using differential interference contrast (DIC) microscopy.
To form biofilms, Ge disks (Mindrum, Rancho Cucamonga, Calif.) in the dual flow cell were conditioned for one hour with sterile 50% human whole saliva. Isolated salivary bacteria, adjusted to approximately 1.0×10^7 cells/ml in 50% saliva (total, 1.5 ml), were injected into the flow chambers. After two hours of initial adherence of bacteria onto disk surfaces, the flow of culture medium (20% Todd-Hewitt broth) was started at a rate of 0.2 ml/min (Foster et al., 2004). The flow rate employed generated a shear rate of approximately 9.65 s^−1 on the substrate surface, and is compatible with the fluid flow in the oral cavity (Bakker et al., 2003).
To evaluate the effects of KSL in controlling the development and maturation of oral biofilms, surface adhered cells (after initial colonization) were perfused continuously with KSL-free or KSL-containing media (KSL at 10 or 50 μg/ml). Alternatively, biofilms at different stages of maturation (i.e., 4, or 6 h after inoculation) were pulse-treated using an injection pump at 0.2 ml/min with 50 μg/ml KSL in 20% THB or the control medium for 30 min at 2 hr intervals. Direct comparison of the effects of antimicrobials on the growth of biofilms between treated versus untreated was made in real-time by DIC microscopy.

[21] = Interaction (adsorption) with hydroxyapatite discs in artificial saliva; format: physicochemical; details: KSL 0.5 mg/ml, 8 untreated HA discs, 37° C.
Method: Affinity of KSL to tooth-like materials was assessed by allowing the KSL to interact with HA discs (Size: 0.38″ diameter×0.06-0.08″ thick) in artificial saliva at 37° C. To simulate the tooth surface, the HA discs were pretreated in filtered human saliva for 2 hours (4 HA discs/4 mL of human saliva). Whole human saliva was collected from three healthy male donors in the morning prior to breakfast. After collection, the saliva was immediately centrifuged at 12,000 rpm for 20 min and the supernatant was filter through a 0.45 μm membrane filter. The HA discs, after conditioning with human saliva, were rinsed with artificial saliva and added to 4 ml of KSL solutions (0.5 mg/ml in artificial saliva) at 37° C. As a control, untreated HA discs were directly added to KSL solutions at 37° C. The sample vials were mounted on a rotary wheel with vertical rotation at a speed of 18 cycles/min. Samples were removed at predetermined times, centrifuged and the supernatants were analyzed by RP-HPLC.

KKVVFKVKFK-NH2 [KSL, Lys-Lys-Val-Val-Phe-Lys-Val-Lys-Phe-Lys-NH2]
MBC [1]: 200 µg/mL | MIC [1]: 50 µg/mL | MBC [2]: 100 µg/mL | MBC [3]: 50 µg/mL | MBC [4]: 200 µg/mL | MIC [4]: 100 µg/mL | MBC [5]: 100 µg/mL | MBC [6]: >200 µg/mL | MIC [6]: 100 µg/mL | MBC [7]: 50 µg/mL | MBC [8]: 25 µg/mL | MIC [8]: 12.5 µg/mL | MBC [9]: 100 µg/mL | MBC [10]: 200 µg/mL | MIC [10]: 100 µg/mL | MBC [11]: 25 µg/mL | MBC [12]: 200 µg/mL | MIC [12]: 50 µg/mL | MBC [13]: 100 µg/mL | MBC [14]: >200 µg/mL | MIC [14]: >200 µg/mL | MBC [15]: >200 µg/mL | MIC [15]: >200 µg/mL | MBC [16]: >200 µg/mL | MIC [16]: 200 µg/mL | MBC [17]: >200 µg/mL | MIC [17]: >200 µg/mL | MBC [18]: 200 µg/mL | MIC [18]: 100 µg/mL | MBC [19]: >200 µg/mL | MIC [19]: >200 µg/mL | effect on oral biofilm development ([20]; continuous perfusion, KSL at 10 μg/ml): partially effective in inhibiting biofilm formation | effect on oral biofilm development ([20]; continuous perfusion, KSL at 50 μg/ml): disrupted biofilm development | effect on oral biofilm development ([20]; pulsed treatment (30 min every 2 h, 50 μg/ml) starting 4 h after inoculation): inhibited biofilm formation | effect on oral biofilm development ([20]; pulsed treatment (30 min every 2 h, 50 μg/ml) starting 6 h after inoculation): failed to inhibit the development of biofilm structures | KSL adsorbed to HA discs [21]: approximately 20% | time to adsorption equilibrium [21]: ≤ 5 min
